According to PubChem BioAssay (NCI):
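Five compound concentrations were applied to cells in 96-well plates for 48 hours; endpoints were derived by simple linear interpolation of the resulting dose-response curve. TGI: total growth inhibition.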

What was measured:
Test in all cases: NCI anticancer screen, dose series, 48 h
786-0 renal = test system: 786-0 renal
A498 renal = test system: A498 renal
A549 NSCLC = test system: A549 NSCLC
ACHN renal = test system: ACHN renal
CAKI-1 renal = test system: CAKI-1 renal
CCRF-CEM leukemia = test system: CCRF-CEM leukemia
COLO 205 colon = test system: COLO 205 colon
DLD-1 colon = test system: DLD-1 colon
DMS 114 small cell lung = test system: DMS 114 small cell lung
DMS 273 small cell lung = test system: DMS 273 small cell lung
EKVX NSCLC = test system: EKVX NSCLC
HCC-2998 colon = test system: HCC-2998 colon
HCT-116 colon = test system: HCT-116 colon
HCT-15 colon = test system: HCT-15 colon
HL-60(TB) leukemia = test system: HL-60(TB) leukemia
HOP-18 NSCLC = test system: HOP-18 NSCLC
HOP-62 NSCLC = test system: HOP-62 NSCLC
IGROV1 ovarian = test system: IGROV1 ovarian
K-562 leukemia = test system: K-562 leukemia
KM12 colon = test system: KM12 colon
KM20L2 colon = test system: KM20L2 colon
LXFL 529 NSCLC = test system: LXFL 529 NSCLC
M14 melanoma = test system: M14 melanoma
M19-MEL melanoma = test system: M19-MEL melanoma
MALME-3M melanoma = test system: MALME-3M melanoma
MOLT-4 leukemia = test system: MOLT-4 leukemia
NCI-H226 lung = test system: NCI-H226 lung
NCI-H460 lung = test system: NCI-H460 lung
NCI-H522 lung = test system: NCI-H522 lung
OVCAR-4 ovarian = test system: OVCAR-4 ovarian
OVCAR-8 ovarian = test system: OVCAR-8 ovarian
RPMI-8226 leukemia = test system: RPMI-8226 leukemia
RXF 393 renal = test system: RXF 393 renal
RXF-631 renal = test system: RXF-631 renal
SF-268 CNS = test system: SF-268 CNS
SF-539 CNS = test system: SF-539 CNS
SK-MEL-2 melanoma = test system: SK-MEL-2 melanoma
SK-MEL-28 melanoma = test system: SK-MEL-28 melanoma
SK-MEL-5 melanoma = test system: SK-MEL-5 melanoma
SK-OV-3 ovarian = test system: SK-OV-3 ovarian
SN12C renal = test system: SN12C renal
SNB-19 CNS = test system: SNB-19 CNS
SNB-75 CNS = test system: SNB-75 CNS
SNB-78 CNS = test system: SNB-78 CNS
SR leukemia = test system: SR leukemia
SW-620 colon = test system: SW-620 colon
TK-10 renal = test system: TK-10 renal
U251 CNS = test system: U251 CNS
UACC-257 melanoma = test system: UACC-257 melanoma
UACC-62 melanoma = test system: UACC-62 melanoma
UO-31 renal = test system: UO-31 renal
HOP-92 NSCLC = test system: HOP-92 NSCLC
HT29 colon = test system: HT29 colon
LOX IMVI melanoma = test system: LOX IMVI melanoma
NCI-H23 lung = test system: NCI-H23 lung
OVCAR-3 ovarian = test system: OVCAR-3 ovarian
OVCAR-5 ovarian = test system: OVCAR-5 ovarian
SF-295 CNS = test system: SF-295 CNS
XF 498 CNS = test system: XF 498 CNS

Measured: TGI

CC1C=CC(C)C2(O)C(=O)NC(O)C12 (stereo not given)
> 100 µM: 786-0 renal | A498 renal | A549 NSCLC | ACHN renal | CAKI-1 renal | CCRF-CEM leukemia | COLO 205 colon | DLD-1 colon | DMS 114 small cell lung | DMS 273 small cell lung | EKVX NSCLC | HCC-2998 colon | HCT-116 colon | HCT-15 colon | HL-60(TB) leukemia | HOP-18 NSCLC | HOP-62 NSCLC | IGROV1 ovarian | K-562 leukemia | KM12 colon | KM20L2 colon | LXFL 529 NSCLC | M14 melanoma | M19-MEL melanoma | MALME-3M melanoma | MOLT-4 leukemia | NCI-H226 lung | NCI-H460 lung | NCI-H522 lung | OVCAR-4 ovarian | OVCAR-8 ovarian | RPMI-8226 leukemia | RXF 393 renal | RXF-631 renal | SF-268 CNS | SF-539 CNS | SK-MEL-2 melanoma | SK-MEL-28 melanoma | SK-MEL-5 melanoma | SK-OV-3 ovarian | SN12C renal | SNB-19 CNS | SNB-75 CNS | SNB-78 CNS | SR leukemia | SW-620 colon | TK-10 renal | U251 CNS | UACC-257 melanoma | UACC-62 melanoma | UO-31 renal

N#CCc1ccc(/C(C#N)=C2/OC(=N)C(c3ccc(CC#N)cc3)C2=O)cc1 (stereo not given)
> 100 µM: 786-0 renal | A498 renal | A549 NSCLC | ACHN renal | CAKI-1 renal | CCRF-CEM leukemia | COLO 205 colon | DLD-1 colon | DMS 114 small cell lung | DMS 273 small cell lung | EKVX NSCLC | HCT-116 colon | HCT-15 colon | HL-60(TB) leukemia | HOP-62 NSCLC | HOP-92 NSCLC | HT29 colon | IGROV1 ovarian | K-562 leukemia | KM20L2 colon | LOX IMVI melanoma | LXFL 529 NSCLC | M14 melanoma | M19-MEL melanoma | MALME-3M melanoma | MOLT-4 leukemia | NCI-H226 lung | NCI-H23 lung | NCI-H460 lung | NCI-H522 lung | OVCAR-3 ovarian | OVCAR-4 ovarian | OVCAR-5 ovarian | OVCAR-8 ovarian | RPMI-8226 leukemia | RXF 393 renal | RXF-631 renal | SF-268 CNS | SF-295 CNS | SF-539 CNS | SK-MEL-2 melanoma | SK-MEL-28 melanoma | SK-MEL-5 melanoma | SK-OV-3 ovarian | SN12C renal | SNB-19 CNS | SNB-75 CNS | SNB-78 CNS | SW-620 colon | TK-10 renal | UACC-257 melanoma | UACC-62 melanoma | UO-31 renal | XF 498 CNS
